Assay results as given in patent US6653340B1, “Compounds useful in the complement, coagulat and kallikrein pathways and method for their preparation” (BioCryst Pharmaceuticals, Inc., priority 1997, dated 2003).
Where two headings read alike, the source gives them in different places.

Legend:
C1s = target: T1, C1s (Homo sapiens, UniProt P09871); assay: C1s esterolytic inhibition assay (Z-Lys-SBzl substrate); assay type: biochemical; details: Z-Lys-SBzl 1.29 mM, C1s 3 to 13 nM; read-out: Cls (Serine Protease Inhibitory Data, IC50)
T1 sequence (P09871 16-688): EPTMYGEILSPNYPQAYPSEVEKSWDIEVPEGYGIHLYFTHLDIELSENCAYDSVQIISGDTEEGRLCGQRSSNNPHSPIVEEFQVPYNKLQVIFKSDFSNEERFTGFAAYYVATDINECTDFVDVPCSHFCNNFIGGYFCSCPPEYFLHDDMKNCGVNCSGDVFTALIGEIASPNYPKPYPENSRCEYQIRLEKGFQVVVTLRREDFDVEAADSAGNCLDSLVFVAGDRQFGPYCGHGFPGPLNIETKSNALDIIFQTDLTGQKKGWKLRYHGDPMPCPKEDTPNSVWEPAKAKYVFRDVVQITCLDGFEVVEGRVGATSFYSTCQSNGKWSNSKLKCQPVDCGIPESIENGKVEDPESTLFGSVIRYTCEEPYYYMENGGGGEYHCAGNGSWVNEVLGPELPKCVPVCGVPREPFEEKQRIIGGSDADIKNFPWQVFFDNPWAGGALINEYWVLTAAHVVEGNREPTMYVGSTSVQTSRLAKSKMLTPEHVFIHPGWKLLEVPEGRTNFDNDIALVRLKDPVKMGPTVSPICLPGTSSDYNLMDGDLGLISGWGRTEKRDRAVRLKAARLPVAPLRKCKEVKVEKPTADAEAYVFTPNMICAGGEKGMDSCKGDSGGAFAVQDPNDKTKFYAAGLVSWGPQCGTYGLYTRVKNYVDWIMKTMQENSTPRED
Method: (§1) The compounds to be tested were dissolved in a stock solution of DMSO at 10.0 or 100 mM. A portion of this stock solution was added to assay buffer in a final volume of 100 μL containing the enzyme of interest. Controls included buffer alone and enzyme solutions to which DMSO was added. Substrate was added to the reaction wells immediately or after incubation at room temperature. The reaction rates were measured spectrophotometrically by the generation of product at 405 nm for 200 sec. Background absorbance at 690 nm was measured and subtracted from the absorbance at 405 nm for each well.
(§2) The reaction rate for enzyme alone was compared to the rate of enzyme in the presence of inhibitor and the percent inhibition was calculated as shown below:
(§3) Percent Inhibition=[Rate without inhibitor−Rate with inhibitor)/(Rate without inhibitor)]×100
(§4) Compounds in the examples were tested a minimum of three times.
C1s esterolytic activity was assayed using a modification of the technique originally described by Kam using Z-Lys-SBzl, 1.29 mM as substrate and C1s at 3 to 13 nM.

kallikrein = kallikrein (Homo sapiens, UniProt P03952); assay: Kallikrein inhibition assay (thioester substrate); assay type: biochemical; details: kallikrein 0.02 units/mL; read-out: Kallikrein (Serine Protease Inhibitory Data, IC50)
kallikrein, sequence (P03952 whole entry): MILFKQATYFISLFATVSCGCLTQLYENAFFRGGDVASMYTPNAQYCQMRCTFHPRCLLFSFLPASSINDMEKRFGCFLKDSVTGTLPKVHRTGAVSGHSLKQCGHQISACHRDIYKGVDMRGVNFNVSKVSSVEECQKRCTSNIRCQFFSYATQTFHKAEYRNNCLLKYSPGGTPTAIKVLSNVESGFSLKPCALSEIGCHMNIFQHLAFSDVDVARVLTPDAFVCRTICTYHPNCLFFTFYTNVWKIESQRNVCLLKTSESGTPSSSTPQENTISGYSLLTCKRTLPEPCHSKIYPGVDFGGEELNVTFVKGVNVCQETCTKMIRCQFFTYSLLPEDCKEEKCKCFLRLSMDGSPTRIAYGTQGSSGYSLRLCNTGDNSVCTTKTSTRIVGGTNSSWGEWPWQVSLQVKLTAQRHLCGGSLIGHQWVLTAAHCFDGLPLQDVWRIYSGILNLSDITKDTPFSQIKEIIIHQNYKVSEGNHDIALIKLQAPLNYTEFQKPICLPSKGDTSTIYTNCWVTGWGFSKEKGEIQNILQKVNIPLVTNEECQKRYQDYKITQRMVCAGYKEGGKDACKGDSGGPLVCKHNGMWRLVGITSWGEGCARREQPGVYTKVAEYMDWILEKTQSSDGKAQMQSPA
Method: as §1, §2, §3, §4
(§5) Thrombin was assayed at 12.5 U/ml using 0.37 mM N-Benzoyl-Phe-Val-Arg-p-nitroanilide (Svendsen, L.; Blomback B.; Blomback, M.; Olsson, P. I. Substrate for determination of trypsin, thrombin and thrombin-like enzymes. Folia Haematol. 1972, 98, 446-454.) as the substrate in 100 mM HEPES, 10 mM CaCl2, 10% DMSO, pH 7.5. Factor Xa, 0.5 U/mL, was assayed in 50 mM HEPES, 150 mM NaCl, 10 mM CaCl2, pH 8.0 using Chromozyme X, 0.17 mM, as the substrate. Plasmin (0.004 units/mL), factor XIIa ([…]) and kallikrein (0.02 units/mL were assayed using modifications of the techniques originally described by McRae, et al. (Biochemistry. 1981, 20, 7196-7206). The assays were run in 200 mM triethanolamine, pH 7.8 and 100 mM Tris-HCl, 100 mM EDTA, […] using Z-Lys-SBzl, 0.13 mM and […], 0.16 mM, as substrates, respectively.

Factor B = Factor B (Homo sapiens, UniProt P00751); details: Ikari, N. et al. Immunology 49: 685-691, 1983; cited from earlier work
Factor B, sequence (P00751 26-764): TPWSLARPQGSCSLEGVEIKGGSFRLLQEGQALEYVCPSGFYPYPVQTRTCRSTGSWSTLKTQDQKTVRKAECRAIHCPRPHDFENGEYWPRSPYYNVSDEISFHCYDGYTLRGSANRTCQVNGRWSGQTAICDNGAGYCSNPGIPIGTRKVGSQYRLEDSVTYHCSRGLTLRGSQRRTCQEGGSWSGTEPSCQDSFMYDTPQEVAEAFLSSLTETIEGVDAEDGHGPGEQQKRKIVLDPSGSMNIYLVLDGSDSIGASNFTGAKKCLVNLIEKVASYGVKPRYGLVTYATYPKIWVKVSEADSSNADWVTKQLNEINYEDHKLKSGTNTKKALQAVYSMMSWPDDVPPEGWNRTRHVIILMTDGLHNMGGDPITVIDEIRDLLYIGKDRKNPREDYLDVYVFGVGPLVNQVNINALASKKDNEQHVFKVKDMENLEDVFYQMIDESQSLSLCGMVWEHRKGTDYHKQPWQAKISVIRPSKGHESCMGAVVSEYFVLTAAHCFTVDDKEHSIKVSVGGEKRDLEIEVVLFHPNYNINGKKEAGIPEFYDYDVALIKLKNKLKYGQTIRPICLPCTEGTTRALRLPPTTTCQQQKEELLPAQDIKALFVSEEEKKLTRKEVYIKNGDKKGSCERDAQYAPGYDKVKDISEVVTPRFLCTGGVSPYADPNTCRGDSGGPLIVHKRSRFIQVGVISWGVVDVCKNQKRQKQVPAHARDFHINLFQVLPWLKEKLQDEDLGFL

factor XIIa = target: T2, factor XIIa (Homo sapiens, UniProt P00748); assay: Factor XIIa inhibition assay (thioester substrate); assay type: biochemical; details: read-out: XIIa (Serine Protease Inhibitory Data, IC50)
T2 sequence (P00748 373-615 limits assumed): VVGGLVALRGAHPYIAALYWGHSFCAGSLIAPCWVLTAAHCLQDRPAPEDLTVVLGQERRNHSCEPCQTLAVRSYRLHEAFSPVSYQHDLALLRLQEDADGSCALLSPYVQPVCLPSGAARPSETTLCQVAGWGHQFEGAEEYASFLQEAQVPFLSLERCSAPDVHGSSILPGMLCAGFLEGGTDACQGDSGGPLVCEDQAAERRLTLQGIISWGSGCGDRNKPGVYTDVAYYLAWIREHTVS
Method: as §1, §2, §3, §4, §5

Factor Xa = Factor Xa (Homo sapiens, UniProt P00742); assay: Factor Xa inhibition assay (Chromozyme X substrate); assay type: biochemical; details: Factor Xa 0.5 U/mL, pH 8.0; read-out: Xa (Serine Protease Inhibitory Data, IC50)
Factor Xa, sequence (P00742 235-488 limits assumed): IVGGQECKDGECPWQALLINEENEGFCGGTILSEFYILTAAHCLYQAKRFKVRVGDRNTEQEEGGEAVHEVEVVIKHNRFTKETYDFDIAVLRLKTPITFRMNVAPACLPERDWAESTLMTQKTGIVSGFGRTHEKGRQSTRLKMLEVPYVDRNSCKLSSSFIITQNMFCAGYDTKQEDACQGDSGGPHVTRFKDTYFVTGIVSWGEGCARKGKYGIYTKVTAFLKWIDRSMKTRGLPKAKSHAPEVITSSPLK
Factor Xa, sequence (P00742 41-179 partner limits assumed): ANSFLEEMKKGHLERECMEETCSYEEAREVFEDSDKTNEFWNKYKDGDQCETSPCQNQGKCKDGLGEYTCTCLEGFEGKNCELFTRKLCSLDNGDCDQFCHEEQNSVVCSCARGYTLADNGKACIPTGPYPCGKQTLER
Method: as §1, §2, §3, §4, §5

Factor D [1] = target: T3, Factor D (Homo sapiens, UniProt P00746); details: Inagi, R et al, Nephron 66: 285-290, 1994; cited from earlier work
T3 sequence (P00746 26-253): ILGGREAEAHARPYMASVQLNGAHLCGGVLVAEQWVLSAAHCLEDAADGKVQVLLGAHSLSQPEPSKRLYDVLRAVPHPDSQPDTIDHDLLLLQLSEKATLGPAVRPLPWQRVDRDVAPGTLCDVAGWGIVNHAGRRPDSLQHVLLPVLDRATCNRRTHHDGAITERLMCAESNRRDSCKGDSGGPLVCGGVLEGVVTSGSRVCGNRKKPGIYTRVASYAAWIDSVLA

Thrombin = Thrombin (Homo sapiens, UniProt P00734); assay: Thrombin inhibition assay (N-Benzoyl-Phe-Val-Arg-p-nitroanilide substrate); assay type: biochemical; details: thrombin 12.5 U/ml, pH 7.5; read-out: Thrombin (Serine Protease Inhibitory Data, IC50)
Method: as §1, §2, §3, §4, §5

Factor D [2] = target: T3, Factor D; assay: Factor D esterolytic inhibition assay (Z-Lys-SBzl substrate); assay type: biochemical; design: Factor D was purified from the urine of a patient with Fanconi syndrome by ion exchange chromatography; from tissue; host or cells: urine of a patient with Fanconi syndrome; details: Z-Lys-SBzl 1.29 mM, pH 7.5, 10% DMSO; read-out: Factor D (Serine Protease Inhibitory Data, IC50)
Source text: A modification of the procedure of Volanakis (Volankis, J. E.; Barnum, S. R.; Kilpatrick, J. M. Purification and properties of human factor D. Methods in Enzymol. 1993, 223, 82-97) for purification of Factor D was utilized as described by Yamauchi (Yamauchi, Y.; Stevens, J. W.; Macon, K. J.; Volanakis, J. E. Recombinant and native zymogen forms of human complement factor D. J. Immunol. 1994, 152, 3645-3653. Briefly, Factor D was purified from the urine of a patient with Fanconi syndrome by ion exchange chromatography using BioRex 70 and two rounds of ion-exchange chromatography in a Pharmacia FPLC system using a HR5/5 Mono S column.
as §1, §2, §3, §4
An established esterolytic assay for the measurement of Factor D activity and inhibition of Factor D activity was used (Kam, C. M.; McRae, B. J.; Harper, J. W.; Niemann, M. A.; Volanakis, J. E.; Powers, J. C. Human complement proteins D, C2, and B Active site mapping with peptide thioester substrates. J Biol. Chem. 1987, 262, 3444-3451). […] Hydrolysis of this compound by Factor D liberated a free sulfhydryl group which is then reacted with 5,5′-dithiobis(2nitrobenzoic acid) producing an intense yellow color (Habeeb, A. F. S. A. Reaction of protein sulfhydryl groups with Ellman's Reagent. Methods in Enzymol. 1976, 25, 457-464.). The assays were performed in 96 well microtiter plates and rates of hydrolysis were monitored at 405 nm in a Anthos Labtec HT2 plate reader. Hydrolysis rates were reported as change in mOD/min. The assay was conducted in 100 mM HEPES, 500 mM NaCl, pH 7.5 containing 10% DMSO in a final volume of 200 μL per well.

## N=C(N)c1ccc2cc(OC(=O)c3ccc(N=C(N)N)cc3)ccc2c1 [nafamostat, 6′-amidino-2-naphthyl-p-guanidinobenzoate, reference compound]
C1s
  IC50: 22 nM
kallikrein
  IC50: 12 nM
Factor B
  IC50: 60000 nM
Factor XIIa
  IC50: 114 nM
Factor Xa
  IC50: 1010 nM
Factor D [1]
  IC50: 25000 nM
Thrombin
  IC50: 678 nM
Factor D [2]
  IC50: 11000 nM
